Reference: publication PMC3265293, “Artificial 64-Residue HIV-1 Enhancer-Binding Peptide Is a Potent Inhibitor of Viral Replication in HIV-1-Infected Cells” (Advances in Virology, 2011)
Where no end group is shown, it is not given here.

Tests used:
plasma membrane = tested on: plasma membrane; design: method as in earlier work; settings: ref earlier work; cited from earlier work
CEM-GFP cells = experiment: MTT assay of PMA-stimulated CEM-GFP cells; assay type: cell-based, human; settings: PMA and increasing concentrations of peptide, after 48 h
Method: After 48 h, cell growth-inhibitory effects of the peptides and PMA were assessed using the 3-[4,5-dimethylthiazol-2-yl]-2,5-diphenyltetrazolium bromide (MTT) assay.

Sequence: GKTKRPRFGKTKRPRVGQQSIEQLENGKTKRPRFGKTKRPRY [R42]
- ability to pass the plasma membrane (plasma membrane): not able to pass the plasma membrane
- cytotoxicity (MTT assay) (CEM-GFP cells): not observed
